Test results as given in patent US20080038321A1, “PROPHYLACTIC/THERAPEUTIC COMPOSITIONS FOR LIVER DISEASES” (Ajinomoto Co., Inc., priority 2004, published 2008).

Experiments:
[1] = tested on: TRB3; experiment: TRB3 mRNA in Fao cells with L-Asp, L-Ala or both (quantitative PCR); type: cell-based, rat; details: 3 h, L-Asp 0.05 mM, L-Ala 0.03 mM or both
Protocol: (§1) Whether the suppressive effect of L-Asp on TRB3 expression in rat hepatocyte-derived Fao cells is increased by adding L-Ala as another amino acid was studied. Whether the expression of HNF-4α is increased was also studied. Fao cells were inoculated on a 24-well plate to an amount of 2×10^5 cells/well, and the cells were cultivated in a 10% fetal bovine serum-containing RPMI 1640 medium (supplied from Nacalai Tesque, Inc.; Code No. 30264-85) at 37° C. in an atmosphere of 5% CO2 overnight. On the following day, the medium was replaced with one of a 10% fetal bovine serum-containing RPMI medium from which all amino acids had been removed (minus amino acid medium; Table 1) and media corresponding to the minus amino acid medium, except with L-Asp (concentration: 0.05 mM), L-Ala (concentration: 0.03 mM), or both added, and the cells were further cultivated at 37° C. in 2.5% CO2 atmosphere for three hours. RNAs were extracted from the cultured cells, and the TRB3 mRNA levels and the HNF-4α mRNA levels were determined through quantitative polymerase chain reaction (PCR) (Table 10).

[2] = tested on: HNF-4α; experiment: HNF-4α mRNA in Fao cells with L-Asp, L-Ala or both (quantitative PCR); type: cell-based, rat; details: 3 h, L-Asp 0.05 mM, L-Ala 0.03 mM or both
Protocol: as §1

[3] = tested on: TRB3; experiment: Suppressive effects of amino acids on TRB3 expression in cultured hepatocytes (Fao cells, quantitative PCR); type: cell-based, rat; details: 3 h, minus amino acid medium plus one L-amino acid 1 mM (or standard medium), mRNA, minus amino acid medium = 1.00, n = 4, mean ± SD
Protocol: Suppressive effects of twenty-two amino acids on TRB3 expression in rat hepatic cancer-derived Fao cells were examined.
The standard medium is a medium corresponding to the minus amino acid medium, except for further containing amino acids listed in Table 2.
RNAs were extracted from the cultured cells, the expression levels of TRB3 gene were determined through quantitative polymerase chain reaction (PCR), and the suppressive effects of amino acids on TRB3 expression were determined and compared with data of TRB3 expression induced upon amino acid starvation. The gene expression was corrected with reference to β-actin expression level. The correction was carried out in the same manner in the after-mentioned genes.
The data were corrected and expressed while taking the average of TRB3 mRNA levels after three-hour cultivation in the minus amino acid medium as 1.00.

[4] = tested on: GK rats fed with high-fat diets; experiment: GK rats fed with high-fat diets: body weight, fasting glucose, insulin, triglyceride, liver triglyceride; details: HFD with about 6% L-Asp or 0.01% pioglitazone
[5] = tested on: TRB3; experiment: Suppressive effects of amino acids on TRB3 expression in cultured hepatocytes (Fao cells, quantitative PCR); type: cell-based, rat; details: other experiments; 1 mM
[6] = tested on: glucose-6-phosphatase (G6Pase); experiment: Effect of L-Asp on G6Pase expression suppressive action of insulin in Fao cells (quantitative PCR); type: cell-based, rat; details: 6 h, no insulin = 1.00
Protocol: To verify whether an amino acid showing a TRB3 expression suppressive action actually increases the insulin action on hepatocytes, how L-Asp acts on glucose-6-phosphatase (G6Pase) expression suppressive action of insulin in rat hepatic cancer-derived Fao cells was studied.
Fao cells were inoculated on a 24-well plate and cultured overnight. Thereafter, 0, 0.3, and 1.0 mM L-Asp and 0, 10^−10, 10^−8, and 10^−6 M insulin were added respectively to a basal medium corresponding to RPMI 1640 medium containing no glucose but 0.1% BSA, except with L-Asp being removed therefrom, and the cells were further cultivated for six hours. RNAs were extracted from the cultured cells, and the expression levels of G6Pase were determined through quantitative PCR.
The G6Pase expression level in −Asp RPMI medium added with no insulin is defined as 1.00.
The values in the parentheses are values while defining the G6Pase expression levels in −Asp RPMI medium at respective insulin concentrations as 1.00, respectively.

[7] = before administration (baseline)

C[C@H](N)C(=O)O [Ala, L-alanine]
TRB3 mRNA level ([1]; minus amino acid medium = 1.00): 0.43 | expression level of TRB3 mRNA ([1]; of minus amino acid medium): 43% | expression level of HNF-4α mRNA [2]: not increased | HNF4α mRNA level ([2]; minus amino acid medium = 1.00): 0.80

N[C@@H](CSSC[C@H](N)C(=O)O)C(=O)O [L-Cyt, cystine]
TRB3 expression level [3]: 0.487 ± 0.13 | TRB3 expression level ([3]; listed as cystine): significantly suppressed TRB3 expression

NC(=O)CC[C@H](N)C(=O)O [L-Gln, glutamine]
TRB3 expression level [3]: 0.750 ± 0.15 | TRB3 expression level ([3]; listed as glutamine): significantly suppressed TRB3 expression

NCC(=O)O [L-Gly, glycine]
TRB3 expression level [3]: 0.665 ± 0.12 | TRB3 expression level ([3]; listed as glycine): significantly suppressed TRB3 expression

N[C@@H](Cc1c[nH]cn1)C(=O)O [L-His, histidine]
TRB3 expression level [3]: 0.643 ± 0.19 | TRB3 expression level ([3]; listed as histidine): significantly suppressed TRB3 expression

CCc1ccc(CCOc2ccc(CC3SC(=O)NC3=O)cc2)nc1 (stereo not shown) [Pio, pioglitazone, reference compound]
Fasting blood glucose level [4, 7]: 121 ± 37 mg/dL | Fasting insulin level [4, 7]: 0.4 ± 0.3 ng/mL | Fasting triglyceride level [4, 7]: 92 ± 19 mg/dL | Body weight ([4]; before administration (baseline), n = 6): 222 ± 10 g | Fasting blood glucose level ([4]; week 3): 127 ± 5 mg/dL | Fasting insulin level ([4]; week 3): 1.9 ± 0.2 ng/mL | Fasting triglyceride level ([4]; week 3): 97 ± 16 mg/dL | Fasting blood glucose level ([4]; week 6): 109 ± 8 mg/dL | Fasting insulin level ([4]; week 6): 1.3 ± 0.5 ng/mL | Fasting triglyceride level ([4]; week 6): 75 ± 12 mg/dL | Triglyceride content in liver ([4]; week 6): 36 ± 8 mg/g

N=C(N)NCCC[C@H](N)C(=O)O [arginine]
TRB3 expression level [3]: do not show significantly suppressed TRB3 expression

NC(=O)C[C@H](N)C(=O)O [asparagine]
TRB3 expression level [3]: do not show significantly suppressed TRB3 expression

C[N+](C)(C)CC(=O)O [betaine, reference compound]
suppressive effect on TRB3 expression [5]: does not show a suppressive effect

N[C@@H](CS)C(=O)O [cysteine]
TRB3 expression level [3]: do not show significantly suppressed TRB3 expression

N[C@@H](CCC(=O)O)C(=O)O [glutamic acid]
TRB3 expression level [3]: do not show significantly suppressed TRB3 expression

O=C(O)[C@@H]1C[C@@H](O)CN1 [hydroxyproline]
TRB3 expression level [3]: do not show significantly suppressed TRB3 expression

CC[C@H](C)[C@H](N)C(=O)O [isoleucine]
TRB3 expression level [3]: do not show significantly suppressed TRB3 expression

CC(C)C[C@H](N)C(=O)O [leucine]
TRB3 expression level [3]: do not show significantly suppressed TRB3 expression

NCCCC[C@H](N)C(=O)O [lysine]
TRB3 expression level [3]: do not show significantly suppressed TRB3 expression

CSCC[C@H](N)C(=O)O [methionine]
TRB3 expression level [3]: do not show significantly suppressed TRB3 expression

N[C@@H](Cc1ccccc1)C(=O)O [phenylalanine]
TRB3 expression level [3]: do not show significantly suppressed TRB3 expression

O=C(O)[C@@H]1CCCN1 [proline]
TRB3 expression level [3]: do not show significantly suppressed TRB3 expression

N[C@@H](CO)C(=O)O [serine]
TRB3 expression level [3]: do not show significantly suppressed TRB3 expression

C[C@@H](O)[C@H](N)C(=O)O [threonine]
TRB3 expression level [3]: do not show significantly suppressed TRB3 expression

N[C@@H](Cc1c[nH]c2ccccc12)C(=O)O [tryptophan]
TRB3 expression level [3]: do not show significantly suppressed TRB3 expression

N[C@@H](Cc1ccc(O)cc1)C(=O)O [tyrosine]
TRB3 expression level [3]: do not show significantly suppressed TRB3 expression

CC(C)[C@H](N)C(=O)O [valine]
TRB3 expression level [3]: do not show significantly suppressed TRB3 expression

insulin: insulin added to the Fao cell culture medium at 10^-10 to 10^-6 M [reference compound]
G6Pase expression level ([6]; insulin 10^-6 M alone in -Asp RPMI): 0.023 (1.00) | G6Pase expression level ([6]; insulin 10^-8 M alone in -Asp RPMI): 0.032 (1.00) | G6Pase expression level ([6]; insulin 10^-10 M alone in -Asp RPMI): 0.148 (1.00)
